Marks after values point to notes of the source that are not given here. Where a SMILES comes first, the peptide text is derived from it. [ ]: non-standard residue; d: D form. Nle = CCCC[C@H](N)C(=O)O; βAla = NCCC(=O)O
Key:
[1] = biological target: T1, BB1R (Homo sapiens, UniProt P28336); assay: Inhibition of specific 125I-BA1 binding to BB1R-transfected NCI-H1299 cells
T1 construct: expressed in transfected cells; host or cells: NCI-H1299
Procedure: (§1) Non-small cell lung cancer cell line NCI-H1299 (ATCC, Manassas, VA, USA) was stably transfected with BB1R, BB2R, and BRS-3. The transfected cells were grown in RPMI-1640 containing 10% fetal bovine serum (FBS) with 0.3 mg/ml geneticin (Invitrogen, Grand Island, NY, USA). The transfected cells, which contained approximately 100,000 receptors/cell, were weekly split using trypsin/EDTA ([13]). In addition, lung cancer cell lines NCI-H727, H1299, and H1975 were purchased from ATCC and cultured in RPMI-1640, which contained 10% FBS. The cell types were derived from different human biopsy specimens. These studies were approved by the NIDDK biospecimens and biosafety committees.
(§2) The ability of AM-37, ST-36, AM-13, and AM-14 to inhibit specific ^125I-BA1 binding to NSCLC cells transfected stably with BB1R, BB2R, and BRS-3 was investigated. NSCLC cells were placed in 24 well plates. When confluent, the cells were washed three times with PBS. The cells were incubated with binding buffer (PBS containing 0.25% bovine serum albumin and 0.025% bacitracin, Sigma-Aldrich, St. Louis, MO, USA). Various concentrations of AM-37, ST-36, AM-13, or AM-14 were added to the cells for 10 min, followed by 100,000 cpm of ^125I-BA1 (0.16 nM) and incubated at 37°C for 30 min when equilibrium of binding was reached. The cells were rinsed three times with binding buffer for 2 min at 4°C. The cells that contained bound peptide dissolved in 0.2 N NaOH and counted in a Wallac 1470 γ-counter. The Ki was calculated as described ([15]).

[2] = test system: ERK; assay: ERK tyrosine phosphorylation by western blot, NCI-H1299 cells transfected with BB2R; format: cell-based, human; settings: for Effect of pretreatment on BA1-induced ERK tyrosine phosphorylation: 10 µM pretreatment, then 100 nM BA1
Procedure: (§3) The tyrosine phosphorylation of the EGFR and ERK was investigated by western blot. NSCLC cells transfected with BB1R, BB2R, and BRS-3 were placed in 10 cm dishes. When the cells were confluent, they were placed in SIT medium (RPMI-1640 containing 3 × 10^−8 M sodium selenite, 5 µg/ml bovine insulin, and 10 µg/ml apo-transferrin; Sigma-Aldrich, St. Louis, MO, USA) for 3 h. […] Cell extracts were made as described previously ([16]), and 600 µg of protein extract was immunoprecipitated with 4 µg anti-phosphotyrosine antibody (Becton Dickenson, USA). The immunoprecipitates were fractionated using a 4–20% polyacrylamide gel (Novex, San Diego, CA, USA). Proteins were transferred to a nitrocellulose membrane and incubated with 2 µg anti-EGFR or anti-ERK antibody (Cell Signaling Technologies, Danvers, MA, USA). After washing the blot, it was incubated with enhanced chemiluminescence detection reagent (Thermo Scientific) for 5 min and exposed to Biomax XAR film (Carestream, Rochester, NY, USA). The band intensity was determined using a Kodak image station 440 densitometer. Alternatively, 20 µg of protein extract was loaded onto polyacrylamide gels and after transfer to nitrocellulose, the blot was probed with anti-PY^1,068-EGFR, anti-EGFR, anti-PY^204ERK, or anti-ERK (Cell Signaling Technologies, Danvers, MA, USA).

[3] = biological target: T2, BRS-3 (Homo sapiens, UniProt P32247); assay: Inhibition of specific 125I-BA1 binding to BRS-3-transfected NCI-H1299 cells; settings: for Ki: inhibition of specific 125I-BA1 binding, BRS-3-transfected NCI-H1299 cells
T2 construct: expressed in transfected cells; host or cells: NCI-H1299
T2 sequence (P32247 1-399): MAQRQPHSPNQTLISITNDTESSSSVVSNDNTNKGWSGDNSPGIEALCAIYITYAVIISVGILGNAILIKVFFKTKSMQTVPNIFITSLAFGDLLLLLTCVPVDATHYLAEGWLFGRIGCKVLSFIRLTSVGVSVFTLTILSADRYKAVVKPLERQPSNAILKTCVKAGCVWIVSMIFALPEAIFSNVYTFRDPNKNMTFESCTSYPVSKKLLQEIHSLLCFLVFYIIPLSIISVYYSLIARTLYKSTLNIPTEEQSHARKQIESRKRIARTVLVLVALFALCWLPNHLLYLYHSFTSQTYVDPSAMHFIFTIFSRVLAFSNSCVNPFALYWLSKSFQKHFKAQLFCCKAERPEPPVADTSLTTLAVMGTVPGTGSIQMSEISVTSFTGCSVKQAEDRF
Procedure: as §1, §2

[4] = biological target: T3, BB2R (Homo sapiens, UniProt P30550); assay: Cytosolic Ca2+ (Fura-2AM) in NCI-H1299 cells transfected with BB2R; format: cell-based; settings: for Effect on the increase in cytosolic Ca2+ caused by BA1 / Effect on basal cytosolic Ca2+: 30 µM, BB2R-transfected cells
T3 construct: expressed in transfected cells; host or cells: NCI-H1299
Procedure: as §1
(§4) The ability of AM-37, ST-36, AM-13, and AM-14 to function as BBR antagonists was investigated. NSCLC cells transfected with BB1R, BB2R, and BRS-3 were harvested and loaded with Fura-2AM (Calbiochem, La Jolla, CA, USA) as described previously ([16]). The excitation ratio was determined at 340 and 380 nm with an emission wavelength of 510 nm.

[5] = biological target: T1, BB1R; assay: Cytosolic Ca2+ (Fura-2AM) in NCI-H1299 cells transfected with BB1R; format: cell-based; settings: for Effect on the increase in cytosolic Ca2+ caused by BA1 / Effect on basal cytosolic Ca2+: 30 µM, BB1R-transfected cells
Procedure: as §1, §4

[6] = biological target: T3, BB2R; assay: Inhibition of specific 125I-BA1 binding to BB2R-transfected NCI-H1299 cells; settings: for Ki: inhibition of specific 125I-BA1 binding, BB2R-transfected NCI-H1299 cells
Description: Non-small cell lung cancer cell line NCI-H1299 (ATCC, Manassas, VA, USA) was stably transfected with BB1R, BB2R, and BRS-3. […] The transfected cells, which contained approximately 100,000 receptors/cell, were weekly split using trypsin/EDTA ([13]). […] The cell types were derived from different human biopsy specimens. These studies were approved by the NIDDK biospecimens and biosafety committees.
NSCLC cells were placed in 24 well plates. When confluent, the cells were washed three times with PBS. […] The cells were rinsed three times with binding buffer for 2 min at 4°C. […] The Ki was calculated as described ([15]).

[7] = biological target: T2, BRS-3; assay: Cytosolic Ca2+ (Fura-2AM) in NCI-H1299 cells transfected with BRS-3; format: cell-based; settings: for Effect on the increase in cytosolic Ca2+ caused by BA1 / Effect on basal cytosolic Ca2+: 30 µM, BRS-3-transfected cells
Procedure: as §1, §4

[8] = test system: EGFR; assay: EGFR tyrosine phosphorylation by western blot, NCI-H1299 cells transfected with BB2R; format: cell-based, human; settings: for Effect of pretreatment on BA1-induced EGFR tyrosine phosphorylation: 10 µM pretreatment, then 100 nM BA1
Procedure: as §3

[9] = test system: NSCLC cells; assay: Ionomycin-induced cytosolic Ca2+ in NSCLC cells (specificity); format: cell-based, human; settings: for Effect on the ability of ION to increase Ca2+: 5 µg/ml ionomycin
Procedure: as §4

[10] = test system: NCI-H1299 cells; assay: MTT proliferation assay, NCI-H1299; format: cell-based, human; settings: for IC50: Homo sapiens, NCI-H1299, 48 h, MTT, 2 days, SIT medium
Procedure: The proliferation of NSCLC cells was investigated using the 3-(4,5-demethylthiazol-2-yl)-[…]-2H-tetrazolium bromide (MTT) assay as described previously ([16]). NCI-H727, H1299, and H1975 cells were placed in SIT medium and varying concentration of AM-37, ST-36, AM-13, or AM-14 added. After 2 days, 0.1% MTT solution (15 µl) was added. After 4 h, DMSO (150 µl) was added and the absorbance at 570 nm was determined.

[11] = biological target: T4, NTR (Homo sapiens, UniProt P30989); assay: Neurotensin-induced cytosolic Ca2+ in NSCLC cells (specificity); format: cell-based; settings: 10 nM neurotensin
T4 construct: endogenous in cells; host or cells: NCI-H1299 (transfected with bombesin receptors)

[12] = 30 µM small molecule followed by 10 nM BA1
[13] = 100 nM BA1, relative to control

T1 sequence (P28336 whole entry): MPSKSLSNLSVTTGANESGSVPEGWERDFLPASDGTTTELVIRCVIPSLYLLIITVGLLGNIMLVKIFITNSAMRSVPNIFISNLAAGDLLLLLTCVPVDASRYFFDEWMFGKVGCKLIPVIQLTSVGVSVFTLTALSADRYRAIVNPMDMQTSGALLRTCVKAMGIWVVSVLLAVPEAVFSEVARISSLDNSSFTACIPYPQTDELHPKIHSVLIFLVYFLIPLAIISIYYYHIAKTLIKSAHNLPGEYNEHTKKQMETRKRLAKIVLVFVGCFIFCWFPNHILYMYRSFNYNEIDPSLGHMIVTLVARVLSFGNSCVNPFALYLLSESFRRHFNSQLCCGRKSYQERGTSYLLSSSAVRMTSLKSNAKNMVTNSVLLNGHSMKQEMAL
T3 sequence (P30550 whole entry): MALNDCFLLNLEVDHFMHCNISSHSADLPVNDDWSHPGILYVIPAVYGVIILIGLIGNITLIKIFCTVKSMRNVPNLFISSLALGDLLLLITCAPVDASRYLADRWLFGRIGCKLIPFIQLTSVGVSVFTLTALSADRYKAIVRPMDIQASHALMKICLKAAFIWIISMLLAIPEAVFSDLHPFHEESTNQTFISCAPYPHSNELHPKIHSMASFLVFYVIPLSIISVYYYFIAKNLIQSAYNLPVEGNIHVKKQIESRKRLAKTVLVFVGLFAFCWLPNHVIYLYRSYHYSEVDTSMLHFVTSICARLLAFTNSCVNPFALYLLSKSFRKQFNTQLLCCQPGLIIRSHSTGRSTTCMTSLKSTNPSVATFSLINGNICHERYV
T4 sequence (P30989 whole entry): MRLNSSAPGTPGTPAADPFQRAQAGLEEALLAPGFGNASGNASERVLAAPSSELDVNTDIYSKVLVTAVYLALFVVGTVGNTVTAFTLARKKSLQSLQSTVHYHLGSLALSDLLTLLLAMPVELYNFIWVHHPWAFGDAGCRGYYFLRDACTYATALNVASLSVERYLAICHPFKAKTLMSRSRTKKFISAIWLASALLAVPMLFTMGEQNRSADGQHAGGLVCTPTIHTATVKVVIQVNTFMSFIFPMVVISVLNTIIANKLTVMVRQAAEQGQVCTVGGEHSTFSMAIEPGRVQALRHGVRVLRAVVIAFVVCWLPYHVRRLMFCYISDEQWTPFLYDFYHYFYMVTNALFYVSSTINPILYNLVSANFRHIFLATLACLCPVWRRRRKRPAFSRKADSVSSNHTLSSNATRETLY

Row | Structure (SMILES) | Ki [1] | Effect of pretreatment on BA1-induced ERK tyrosine phosphorylation [2] | Ki [3] | Increase in cytosolic Ca2+, BB2R [4, 12] | Increase in cytosolic Ca2+, BB1R [5, 12] | Ki [6] | Increase in cytosolic Ca2+, BRS-3 [7, 12] | Effect on the increase in cytosolic Ca2+ caused by BA1 ([7]; 10 nM BA1) | Effect on basal cytosolic Ca2+ [7] | Effect of pretreatment on BA1-induced EGFR tyrosine phosphorylation [8] | Effect on the ability of ION to increase Ca2+ [9] | IC50 [10] | Effect on the increase in cytosolic Ca2+ caused by BA1 ([4]; 10 nM BA1) | Effect on basal cytosolic Ca2+ [4] | Effect on the increase in cytosolic Ca2+ caused by BA1 ([5]; 10 nM BA1) | Effect on basal cytosolic Ca2+ [5] | Effect on the ability of NT to increase cytosolic Ca2+ [11] | other results
1 | COc1ccc(NC(=O)N[C@H](Cc2c[nH]c3ccccc23)C(=O)NCC2(c3ccc(F)cc3)CCCCC2)cc1 [AM-13, (R)-N-[[1-(4-fluorophenyl)cyclohexyl]methyl]-3-(1H-indol-3-yl)-2-[3-(4-methoxyphenyl)ureido]propanamide] | > 100 µM | not | > 100 µM | 5 ± 0.6^a nM | 7 ± 0.8^a nM | 27 ± 4 µM | 2 ± 0.3^a nM | partially blocked | no effect | BA1 increased strongly EGFR tyrosine phosphorylation | no effect | – | – | – | – | – | – | –
2 | COc1ccc(NC(=O)N[C@@H](Cc2c[nH]c3ccccc23)C(=O)NCC2(c3ccc(F)cc3)CCCCC2)cc1 [AM-14] | > 100 µM | little effect | > 100 µM | 6 + 0.5^a nM | – | 45 ± 8 µM | 3 + 0.4^a nM | – | – | little effect | no effect | > 50 µM | partially blocked | no effect | partially blocked | no effect | – | –
3 | COc1ccc(NC(=O)N[C@H](Cc2c[nH]c3ccccc23)C(=O)NCC2(c3cccnc3)CCCCC2)cc1 [AM-37, (R)-3-(1H-indol-3-yl)-2-[3-(4-methoxyphenyl)ureido]-N-[[1-(3-pyridinyl)cyclohexyl]methyl]propanamide] | 3.6 ± 0.5 µM | decreased significantly | 5.5 ± 0.6 µM | 0^a nM | 1 ± 0.6^a nM | 1.4 ± 0.2 µM | 0^a nM | – | – | addition of BA1 had little effect | – | 16 µM | – | – | blocked | no effect | no effect | Effect on NCI-H1299 proliferation ([10]; 3 µM): little effect; Effect on NCI-H1299 proliferation ([10]; 30 µM): strongly inhibited
4 | CCCC[C@H](NC(=O)[C@H](Cc1ccccc1)NC(=O)[C@H](Cc1c[nH]cn1)NC(=O)CCNC(=O)[C@@H](NC(=O)[C@H](C)NC(=O)[C@H](Cc1c[nH]c2ccccc12)NC(=O)[C@H](CCC(N)=O)NC(=O)[C@H](N)Cc1ccc(O)cc1)C(C)C)C(N)=O [BA1, (D-Tyr^6, β-Ala^11, Phe^13, Nle^14)BB^6–14, reference compound] (H-[dY]QWAV[βAla]HF[Nle]-NH2; N-terminus and C-terminus assumed) | – | – | – | – | – | – | – | – | – | – | – | – | – | – | – | – | – | ERK tyrosine phosphorylation [2, 13]: 277%; Cytosolic Ca2+ reached after BA1 ([4]; 10 nM BA1, from 160 nM, Figure 2D): 186 nM; Increase in cytosolic Ca2+, BB2R ([4]; BA1 10 nM alone): 26.3 ± 1.7 nM; Cytosolic Ca2+ reached after BA1 ([5]; 10 nM BA1, from 160 nM, within seconds, Figure 2A): 178 nM; Increase in cytosolic Ca2+, BB1R ([5]; BA1 10 nM alone): 18.5 ± 1.1 nM; Cytosolic Ca2+ reached after BA1 ([7]; 10 nM BA1, from 170 nM, Figure 2G): 194 nM; Increase in cytosolic Ca2+, BRS-3 ([7]; BA1 10 nM alone): 24.4 ± 2.3 nM; EGFR tyrosine phosphorylation [8, 13]: 326%
5 | COc1ccc(NC(=O)N[C@@H](Cc2c[nH]c3ccccc23)C(=O)NCC2(c3cccnc3)CCCCC2)cc1 [ST-36] | 7.9 ± 0.9 µM | decreased significantly | 10.8 ± 0.9 µM | 0^a nM | 0^a nM | 6.9 ± 0.3 µM | 0^a nM | blocked | no effect | addition of BA1 had little effect | – | 22 µM | blocked | no effect | – | – | no effect | IC50 [3]: 10.8 µM; IC50 [6]: 6.9 µM
6 | C[C@H](CCC(=O)O)C[C@H](C)C[C@H](C)C(=O)/C=C(\O)[C@H](C)C[C@H](C)C/C=C/[C@@H](C)[C@@H](O)[C@@H](C)[C@@H](O)C[C@@H]1CC[C@@](C)([C@H]2CC[C@@](C)([C@@H](C)O)O2)O1 [ionomycin, reference compound] | – | – | – | – | – | – | – | – | – | – | – | – | – | – | – | – | – | Effect on cytosolic Ca2+ ([9]; 5 µg/ml): strongly increased

Source: publication PMC5519534, “AM-37 and ST-36 Are Small Molecule Bombesin Receptor Antagonists” (Frontiers in Endocrinology, 2017)
